US5444056A, “Aminoalkoxyphenyl derivatives, process for their preparation and compositions containing them” (Sanofi, priority 1989, dated 1995)
Where a name gives a salt, the structure may show the parent alone.

Experiments:
[1] = tested on: contractile response to potassium-induced depolarization on isolated rat aorta; assay: Calcium inhibitory properties: antagonism of contractile response to potassium-induced depolarization on isolated rat aorta; parameters: species or system rat (male Wistar); conditions: percent of maximal contraction before incubation, 60 min
Description: It is well established that the depolarization of a smooth muscle membrane by potassium makes the latter permeable to extracellular calcium and induces muscle contraction. Consequently, the measurement of inhibition of the contractile response to depolarization by potassium or the measurement of relaxation of the tonic contraction on potassium depolarization can provide an evaluation of the potency of a compound as an inhibitor of the membrane permeability to Ca^++ ions. The technique used is the following: The aorta is removed from male Wistar rats weighing about 300 g and cut into strips approximately 40 mm long and 3 mm wide. These fragments are placed in a 25 ml isolated organ bath containing modified Krebs-bicarbonate solution (112 mM NaCL; 5 mM KCl; 25 mM NaHCO3; 1 mM KH2 PO4; 1.2 mM MgSO4; 2.5 mM CaCl2; 11.5 mM glucose, made up to 1000 ml with distilled water) maintained at 37° C. and through which a stream of carbon dioxide is passed. The preparation is connected to a force microsensor and the contractile response is recorded after amplification on a recorder. A tension of 2g is applied to the preparation. This latter is maintained in the modified Krebs-bicarbonate solution for 60 minutes, and then contractions are induced by replacing the Krebsbi-carbonate solution by a Krebs-potassium solution (17 mM NaCl; 100 mM KCl; 25 mM NaHCO3; 1 mM KH2 PO4; 1.2 mM MgSO4; 2.5 mM CaCl2; 11.5 mM glucose; made up to 1000 ml with distilled water). When the contractile response of the preparation has become reproducible, a given amount of the compound of the invention is introduced into the bath. Sixty minutes later a new spasm is induced by potassium depolarization. The results obtained on the aorta under investigation are then expressed in percent of the maximal contractional effect before incubation with the test substance. As examples, the following results were obtained, the compounds of formula (1) being in the form of the free base, the hydrochloride, oxalate or fumarate.

[2] = tested on: increase in blood pressure induced by epinephrine (anti-α effect); assay: Anti-α effect: reduction of epinephrine-induced increase in blood pressure in anesthetized atropinized dog; format: in vivo; parameters: key: +: for a reduction <50%; ++: for a reduction ≥50%; +++: for an almost complete reduction
Procedure: The aim of this test is to determine the capacity of the compounds of the invention to reduce the increase in blood pressure induced by epinephrine (anti-αeffect) and the acceleration of the heart rate induced by isoprenaline (anti-βeffect) in the dog previously anesthetized with pentobarbital and atropinized. First, are determined for each dog the dose of epinephrine (between 3 and 10 μg/kg) which causes a reproducible increase in arterial blood pressure of about 133.10^2 Pa and the dose of isoprenaline (1 to 2 μg/kg) which causes a reproducible increase in the heart rate of about 70 beats/minute. The doses of epinephrine and isoprenaline thus determined are injected alternatively every ten minutes and after the two consecutive reference responses have been obtained, a quantity of the test compound is administered by the intravenous route. The percentage reduction of the hypertension caused by the test compound in comparison with the reference hypertension previously obtained (about 100 mm Hg) is recorded. In both cases, the results of the reduction in arterial pressure and heart rate are expressed as follows: […]

[3] = tested on: acceleration of the heart rate induced by isoprenaline (anti-β effect); assay: Anti-β effect: reduction of isoprenaline-induced acceleration of the heart rate in anesthetized atropinized dog; format: in vivo; parameters: key to Anti-β effect: +: for a reduction <50%; ++: for a reduction ≥50%; +++: for an almost complete reduction
Procedure: The aim of this test is to determine the capacity of the compounds of the invention to reduce the increase in blood pressure induced by epinephrine (anti-αeffect) and the acceleration of the heart rate induced by isoprenaline (anti-βeffect) in the dog previously anesthetized with pentobarbital and atropinized.
First, are determined for each dog the dose of epinephrine (between 3 and 10 μg/kg) which causes a reproducible increase in arterial blood pressure of about 133.10^2 Pa and the dose of isoprenaline (1 to 2 μg/kg) which causes a reproducible increase in the heart rate of about 70 beats/minute. The doses of epinephrine and isoprenaline thus determined are injected alternatively every ten minutes and after the two consecutive reference responses have been obtained, a quantity of the test compound is administered by the intravenous route.
The percentage reduction of the acceleration of the heart rate caused by the test compound compared with the reference tachycardia previously measured (about 70 beats) is recorded.
In both cases, the results of the reduction in arterial pressure and heart rate are expressed as follows: […]

Row | Structure (SMILES) | % maximal contractional effect ([1]; 10^-7 M, 0.1 µM) | % maximal contractional effect ([1]; 10^-8 M, 0.01 µM) | % maximal contractional effect ([1]; 10^-9 M, 0.001 µM) | % maximal contractional effect ([1]; 10^-10 M, 0.0001 µM) | Anti-α effect ([2]; intravenous, 0,035 mg/kg) | inhibition in vivo at 0.035 mg/kg ([3]; Canis lupus familiaris, intravenous, 0,035 mg/kg) | Anti-α effect ([2]; intravenous, 1 mg/kg) | inhibition in vivo at 1 mg/kg ([3]; Canis lupus familiaris, intravenous, 1 mg/kg) | Anti-α effect ([2]; intravenous, 0,1 mg/kg) | Anti-β effect ([3]; intravenous, 0,1 mg/kg) | Anti-α effect ([2]; intravenous, 0,05 mg/kg) | Anti-β effect ([3]; intravenous, 0,05 mg/kg) | Anti-α effect ([2]; intravenous, 0,013 mg/kg) | Anti-β effect ([3]; intravenous, 0,013 mg/kg)
1 | COc1ccc2c(c1)c(C(C)C)c(S(=O)(=O)c1ccc(OCCCN(C)CCc3ccc(OC)c(OC)c3)cc1)n2C [Ex. 61, 2-{4-[3-(N-methyl N-3,4-dimethoxy-β-phenethylamino)propoxy]benzenesulfonyl} 3-isopropyl 5-methoxy 1-methyl indole hydrogen fumarate] | 15,7% | 31,2% | 71,4% | 89,5% | +++ | ≥ 50% | – | – | – | – | – | – | – | –
2 | COc1ccc2[nH]c(S(=O)(=O)c3ccc(OCCCN(C)CCc4ccc(OC)c(OC)c4)cc3)c(C(C)C)c2c1 [Ex. 62, 2-{4-[3-(N-methyl N-3,4-dimethoxy-β-phenethylamino)propoxy]benzenesulfonyl} 3-isopropyl 5-methoxy indole hydrogen oxalate] | 37,1% | 48,7% | 93,7% | 90,3% | – | – | +++ | ≥ 50% | – | – | – | – | – | –
3 | COc1ccc(CCN(C)CCCOc2ccc(S(=O)(=O)c3c(C(C)C)n(C)c4cccc(C)c34)cc2)cc1OC [Ex. 65, 3-{4-[3-(N-methyl N-3,4-dimethoxy-β-phenethylamino)propoxy]benzenesulfonyl} 2-isopropyl 1,4-dimethyl indole hydrogen oxalate] | 14,3% | 29,9% | 76,1% | 83,5% | – | – | – | – | +++ | +++ | – | – | – | –
4 | CCCCN(CCCC)CCCOc1ccc(S(=O)(=O)c2c(C(C)C)n(C)c3cccc(C)c23)cc1.O=C(O)C(=O)O [Ex. 66, 3-{4-[3-(di-n-butylamino)propoxy]benzenesulfonyl} 2-isopropyl 1,4-dimethyl indole hydrogen oxalate] | 7,1% | 37,1% | 83,1% | – | – | – | – | – | – | – | +++ | +++ | – | –
5 | COc1cc(CCN(C)CCCOc2ccc(S(=O)(=O)c3c(C(C)C)cn4cccc(C)c34)cc2)cc(OC)c1 [Ex. 76, 1-{4-[3-(N-methyl N-3,5-dimethoxy-β-phenethylamino)propoxy]benzenesulfonyl} 2-isopropyl 8-methyl indolizine] | – | 12,7% | 41,8% | 64,1% | – | – | – | – | – | – | – | – | +++ | +++
